Laboratory results from patent US20070123514A1, “Methods of modulating neurotrophin-mediated activity” (PainCeptor Pharma Corporation, priority 2005, published 2007).

System: human TrkA (HEK_trkA: TrkA alone)
Test: 125I-NGF binding displacement in HEK_trkA cells
Details: result in words
Method: (§1) All cells were incubated at 37° C. in 5% CO2. PC12 cells were maintained in RPMI-1640 medium supplemented with 10% fetal bovine serum (FBS). A875 human melanoma cells were maintained in DMEM with 10% FBS. HEK 293 cells were stably transfected with human TrkA plasmid (see below) and maintained in DMEM with 10% FBS and G418 (600 μg/mL) for selection.
Expression of human TrkA in HEK cells was achieved by transfecting the cells with the TrkA expression vector using Lipofectamine (Invitrogen) reagent. HEK cells were plated in 100 mm Petri dishes at a concentration of 10^6 cells per dish. The next day, a solution of DNA diluted in 1 mL OptiMEM (Invitrogen) per dish was prepared and incubated for 15 min at room temperature. […]
NGF binding was evaluated using methods familiar to those who are skilled in the art. […] Non-specific binding was determined for reference by incubating ^125I-NGF with an excess of non-radioactive NGF in the abence of compound. Following a two-hour incubation period at 4° C., ^125I-NGF bound to the cells was quantified in a gamma radiation counter following separation from unbound NGF by filtration or centrifugation through glycerol (10% in HKR). Inhibition of binding was calculated as a percent of the specific binding (calculated as the differential between ^125I-NGF binding in the absence and presence of an excess of non-radioactive NGF without compound). […]

Compound	blocking of NGF binding to TrkA (dose-response curve)
CC(=O)Nc1cc2c3c(cc(NC(C)=O)cc3c1)C(=O)N(c1cccc(C(=O)O)c1)C2=O [Compound 94, 3-(5,8-Bis-acetylamino-1,3-dioxo-1H,3H-benzo[de]isoquinolin-2-yl)-benzoic acid]	effectively blocks NGF binding to TrkA

System: PC12 (TrkA & p75)
Test: 125I-NGF binding displacement in PC12 cells
Design: species or system rat
Details: PC12 cells expressing TrkA and p75; result in words
Method: The method for acquiring the PC12 data described in Table 1 is described herein in Example 1. Each experiment was done at least once with an n value of 4 for each data point. (n/a=not acquired)
as §1
NGF binding was evaluated using methods familiar to those who are skilled in the art. Briefly, cells expressing one or both NGF receptors (PC12: TrkA+p75; A875: p75 alone; HEK_trkA: TrkA alone) were harvested by replacing the medium with calcium-magnesium free balanced salt (Grey's) solution and incubating at 37° C. for 15 min. For NGF binding, cells were resuspended at a concentration of 2×10^6 cells/mL in HEPES-Krebs-Ringer (HKR) buffer (10 mM HEPES; 125 mM NaCl; 4.8 mM KCl; 1.3 mM CaCl2; 1.2 mM MgSO4; 1.2 mM KH2PO4; 1 mg/ml BSA; 1 mg/ml glucose; pH 7.4) and exposed to ^125I-NGF (˜0.1 nM) in the presence or absence of varying concentrations of the compound. Non-specific binding was determined for reference by incubating ^125I-NGF with an excess of non-radioactive NGF in the abence of compound. Following a two-hour incubation period at 4° C., ^125I-NGF bound to the cells was quantified in a gamma radiation counter following separation from unbound NGF by filtration or centrifugation through glycerol (10% in HKR). Inhibition of binding was calculated as a percent of the specific binding (calculated as the differential between ^125I-NGF binding in the absence and presence of an excess of non-radioactive NGF without compound). Dose-response inhibition curves were typically generated with seven concentrations of a given compound, with three replicates for each concentration. For most compounds, multiple dose-response curves were generated.
The IC50 data shown in Table 1 were acquired using the procedure described herein using PC12 cells.

Compound	blocking of NGF binding (dose-response curve)
O=C(O)c1ccc(Cl)c(N2C(=O)c3cc([N+](=O)[O-])cc4cc([N+](=O)[O-])cc(c34)C2=O)c1 [Compound 7, 4-Chloro-3-(5,8-dinitro-1,3-dioxo-1H,3H-benzol[de]isoquinolin-2-yl)-benzoic acid]	effectively blocks NGF binding
O=C1c2cccc3cc([N+](=O)[O-])cc(c23)C(=O)N1c1ccc(S(=O)(=O)O)cc1 [Compound 71, 4-(5-Nitro-1,3-dioxo-1H,3H-benzo[de]isoquinolin-2-yl)-benzenesulfonic acid]	effectively block NGF binding
CC(=O)Nc1cc2c3c(cc(NC(C)=O)cc3c1)C(=O)N(c1cccc(C(=O)O)c1)C2=O [Compound 94, 3-(5,8-Bis-acetylamino-1,3-dioxo-1H,3H-benzo[de]isoquinolin-2-yl)-benzoic acid]	effectively blocks NGF binding

Same assay, conditions: PC12 cells, compound concentration 25 μM

Compound	PC12 (TrkA & p75) Single point (% max binding) Mean
O=C(O)c1ccc(Cl)c(N2C(=O)c3cccc4c(C(=O)c5ccccc5)ccc(c34)C2=O)c1 [Compound 98, 3-(6-Benzoyl-1,3-dioxo-1H,3H-benzo[de]isoquinolin-2-yl)-4-chloro-benzoic acid]	*** (0 > *** > 30)
CCOC(=O)c1cccc(N2C(=O)c3cccc4cccc2c34)c1 [Compound 105, 3-(2-Oxo-2H-benzo[cd]indol-1-yl)-benzoic acid ethyl ester]	* (* > 50)
CC(=O)Nc1ccc(C(=O)O)cc1N1C(=O)c2cccc3cc([N+](=O)[O-])cc(c23)C1=O [Compound 110, 4-Acetylamino-3-(5-nitro-1,3-dioxo-1H,3H-benzo[de]isoquinolin-2-yl)-benzoic acid]	** (30 > ** > 50)
O=C(O)c1ccc(Cl)c(N2C(=O)c3cccc4c(C(=O)O)ccc(c34)C2=O)c1 [Compound 99, 2-(5-Carboxy-2-chloro-phenyl)-1,3-dioxo-2,3-dihydro-1H-benzo[de]isoquinoline-6-carboxylic acid]	* (* > 50)
O=C(O)c1ccc(Cl)c(N2C(=O)c3cccc4c(Cl)ccc(c34)C2=O)c1 [Compound 111, 4-Chloro-3-(6-chioro-1,3-dioxo-1H,3H-benzo[de]isoquinolin-2-yl)-benzoic acid]	** (30 > ** > 50)
CCOC(=O)c1cccc(N2C(=O)c3cccc4c([N+](=O)[O-])ccc2c34)c1 [Compound 106, 3-(6-Nitro-2-oxo-2H-benzo[cd]indol-1-yl)-benzoic acid ethyl ester]	* (* > 50)
O=C(O)c1cccc(N2C(=O)c3cccc4cccc2c34)c1 [Compound 107, 3-(2-Oxo-2H-benzo[cd]indol-1-yl)-benzoic acid]	** (30 > ** > 50)
CCOC(=O)c1cc(N2C(=O)c3cccc4c([N+](=O)[O-])ccc2c34)ccc1Cl [Compound 108, 2-Chloro-5-(6-nitro-2-oxo-2H-benzo[cd]indol-1-yl)-benzoic acid ethyl ester]	* (* > 50)

Same assay, conditions: PC12 cells, compound concentration 50 μM

Compound	PC12 (TrkA & p75) Single point (% max binding) Mean
O=C(O)c1cc(Cl)cc(N2C(=O)c3cccc4cc([N+](=O)[O-])cc(c34)C2=O)c1Cl [Compound 51, 2,5-Dichloro-3-(5-nitro-1,3-dioxo-1H,3H-benzo[de]isoquinolin-2-yl)-benzoic acid]	* (* > 50)
Nc1cc2c3c(cc(Br)cc3c1)C(=O)N(c1cc(C(=O)O)ccc1Cl)C2=O [Compound 56, 3-(5-Amino-8-bromo-1,3-dioxo-1H,3H-benzo[de]isoquinolin-2-yl)-4-chloro-benzoic acid]	* (* > 50)
Nc1cc2c3c(cc(N)cc3c1)C(=O)N(c1ccc(S(=O)(=O)O)cc1)C2=O [Compound 118, 4-(5,8-Diamino-1,3-dioxo-1H,3H-benzo[de]isoquinolin-2-yl)-benzenesulfonic acid]	** (30 > ** > 50)
CC(=O)Nc1cc2c3c(cc(Br)cc3c1)C(=O)N(c1cc(C(=O)O)ccc1Cl)C2=O [Compound 57, 3-(5-Acetylamino-8-bromo-1,3-dioxo-1H,3H-benzo[de]isoquinolin-2-yl)-4-chloro-benzoic acid]	** (30 > ** > 50)
O=C(O)c1ccc(Cl)c(N2C(=O)c3cc(Br)cc4cc([N+](=O)[O-])cc(c34)C2=O)c1 [Compound 53, 3-(5-Bromo-8-nitro-1,3-dioxo-1H,3H-benzo[de]isoquinolin-2-yl)-4-chloro-benzoic acid]	* (* > 50)

Same assay, conditions: PC12 cells, concentration cell printed as '═'

Compound	PC12 (TrkA & p75) Single point (% max binding) Mean
CC(=O)Nc1cc2c3c(cc(NC(C)=O)cc3c1)C(=O)N(c1ccc(S(=O)(=O)O)cc1)C2=O [Compound 119, 4-(5,8-Bis-acetylamino-1,3-dioxo-1H,3H-benzol[de]isoquinolin-2-yl)-benzenesulfonic acid]	** (30 > ** > 50)
